Test results as given in publication PMC5570656 (Journal of medicinal chemistry, 2017).
Structures can show the parent of a compound that is named as a salt. Each block holds one compound with its values, some of them ahead of it.

Legend:
[1] = mice, in words, earlier work; cited from earlier work
[2] = rats, in words, earlier work; cited from earlier work
[3] = tested on: 45 different CNS targets and receptors; conditions: of 45 targets, cited from earlier work
Caco-2 = conditions: in words, previously designed inhibitors; cited from earlier work
[4] = in words
bovine eNOS = bovine eNOS (Bos taurus, UniProt P29473); conditions: ratio of respective Ki values
murine macrophage iNOS = murine macrophage iNOS (Mus musculus, UniProt P29477); conditions: ratio of respective Ki values
nNOS = nNOS (Homo sapiens, UniProt P29475); assay: Stability of stored compound solutions; format: physicochemical; conditions: solutions stored for longer periods of time (ca. one week)
Sequence of nNOS (P29475 whole entry): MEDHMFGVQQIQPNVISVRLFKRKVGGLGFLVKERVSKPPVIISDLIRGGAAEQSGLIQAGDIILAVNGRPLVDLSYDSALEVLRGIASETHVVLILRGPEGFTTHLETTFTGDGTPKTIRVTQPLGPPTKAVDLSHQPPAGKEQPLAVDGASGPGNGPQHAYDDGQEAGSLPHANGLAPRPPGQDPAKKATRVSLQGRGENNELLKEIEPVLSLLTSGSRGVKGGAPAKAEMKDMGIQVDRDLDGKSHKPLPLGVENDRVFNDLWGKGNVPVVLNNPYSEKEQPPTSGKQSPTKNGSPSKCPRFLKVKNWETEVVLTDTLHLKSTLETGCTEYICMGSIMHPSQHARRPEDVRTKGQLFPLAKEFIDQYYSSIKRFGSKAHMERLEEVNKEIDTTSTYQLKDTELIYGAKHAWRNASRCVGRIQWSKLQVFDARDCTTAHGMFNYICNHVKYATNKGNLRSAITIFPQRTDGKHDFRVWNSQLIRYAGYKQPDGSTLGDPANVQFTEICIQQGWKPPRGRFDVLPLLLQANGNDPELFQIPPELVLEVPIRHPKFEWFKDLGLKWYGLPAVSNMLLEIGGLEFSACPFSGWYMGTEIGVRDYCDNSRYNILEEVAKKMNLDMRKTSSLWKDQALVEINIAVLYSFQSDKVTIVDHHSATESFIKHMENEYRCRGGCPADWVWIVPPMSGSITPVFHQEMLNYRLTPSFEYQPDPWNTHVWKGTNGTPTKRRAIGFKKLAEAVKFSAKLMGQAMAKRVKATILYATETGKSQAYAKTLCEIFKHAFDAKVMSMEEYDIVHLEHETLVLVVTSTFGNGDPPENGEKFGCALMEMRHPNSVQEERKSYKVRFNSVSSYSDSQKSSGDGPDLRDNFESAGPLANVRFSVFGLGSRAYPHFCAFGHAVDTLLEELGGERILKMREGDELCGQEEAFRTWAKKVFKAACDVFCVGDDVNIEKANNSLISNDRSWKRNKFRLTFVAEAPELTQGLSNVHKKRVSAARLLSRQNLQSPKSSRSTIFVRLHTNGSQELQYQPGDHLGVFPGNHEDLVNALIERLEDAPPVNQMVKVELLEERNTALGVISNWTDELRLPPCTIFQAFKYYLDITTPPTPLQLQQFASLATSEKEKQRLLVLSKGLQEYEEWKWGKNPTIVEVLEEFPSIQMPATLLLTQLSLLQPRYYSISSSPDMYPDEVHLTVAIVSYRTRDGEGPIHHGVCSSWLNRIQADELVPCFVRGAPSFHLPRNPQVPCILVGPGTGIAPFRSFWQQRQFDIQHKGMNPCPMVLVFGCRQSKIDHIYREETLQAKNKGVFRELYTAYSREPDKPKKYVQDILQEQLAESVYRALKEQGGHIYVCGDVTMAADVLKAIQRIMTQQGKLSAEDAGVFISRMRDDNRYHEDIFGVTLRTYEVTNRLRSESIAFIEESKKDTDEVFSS

Sequence of murine macrophage iNOS (P29477 whole entry): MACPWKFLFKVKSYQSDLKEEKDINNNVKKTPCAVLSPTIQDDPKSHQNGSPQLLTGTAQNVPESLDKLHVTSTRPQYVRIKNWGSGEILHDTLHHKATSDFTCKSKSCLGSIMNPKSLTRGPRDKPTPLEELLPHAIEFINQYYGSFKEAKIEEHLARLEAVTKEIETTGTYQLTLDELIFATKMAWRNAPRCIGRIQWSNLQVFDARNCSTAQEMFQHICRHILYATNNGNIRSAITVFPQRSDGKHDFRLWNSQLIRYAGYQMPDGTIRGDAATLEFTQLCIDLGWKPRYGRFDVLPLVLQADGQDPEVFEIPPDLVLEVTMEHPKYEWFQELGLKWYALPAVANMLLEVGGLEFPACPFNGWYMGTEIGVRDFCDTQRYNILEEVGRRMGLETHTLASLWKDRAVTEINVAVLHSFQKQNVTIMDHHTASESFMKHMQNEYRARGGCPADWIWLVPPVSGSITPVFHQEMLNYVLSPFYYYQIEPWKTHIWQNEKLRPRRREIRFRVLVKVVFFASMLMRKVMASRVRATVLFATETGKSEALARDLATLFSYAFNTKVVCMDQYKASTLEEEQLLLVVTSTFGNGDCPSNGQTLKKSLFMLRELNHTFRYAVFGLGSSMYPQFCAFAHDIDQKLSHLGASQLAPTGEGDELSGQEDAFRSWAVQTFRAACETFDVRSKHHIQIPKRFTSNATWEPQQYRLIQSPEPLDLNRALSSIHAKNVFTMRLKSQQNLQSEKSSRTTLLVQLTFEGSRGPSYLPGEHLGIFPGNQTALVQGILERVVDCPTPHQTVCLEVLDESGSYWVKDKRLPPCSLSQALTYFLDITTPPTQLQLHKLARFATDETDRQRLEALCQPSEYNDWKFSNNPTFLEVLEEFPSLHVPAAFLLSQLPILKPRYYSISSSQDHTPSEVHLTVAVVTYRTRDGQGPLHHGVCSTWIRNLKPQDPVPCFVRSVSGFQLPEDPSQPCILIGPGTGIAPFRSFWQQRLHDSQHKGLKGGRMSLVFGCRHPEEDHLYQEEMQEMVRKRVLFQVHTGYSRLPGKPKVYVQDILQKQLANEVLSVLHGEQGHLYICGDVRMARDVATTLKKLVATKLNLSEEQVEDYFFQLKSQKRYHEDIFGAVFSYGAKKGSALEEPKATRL
Sequence of bovine eNOS (P29473 whole entry): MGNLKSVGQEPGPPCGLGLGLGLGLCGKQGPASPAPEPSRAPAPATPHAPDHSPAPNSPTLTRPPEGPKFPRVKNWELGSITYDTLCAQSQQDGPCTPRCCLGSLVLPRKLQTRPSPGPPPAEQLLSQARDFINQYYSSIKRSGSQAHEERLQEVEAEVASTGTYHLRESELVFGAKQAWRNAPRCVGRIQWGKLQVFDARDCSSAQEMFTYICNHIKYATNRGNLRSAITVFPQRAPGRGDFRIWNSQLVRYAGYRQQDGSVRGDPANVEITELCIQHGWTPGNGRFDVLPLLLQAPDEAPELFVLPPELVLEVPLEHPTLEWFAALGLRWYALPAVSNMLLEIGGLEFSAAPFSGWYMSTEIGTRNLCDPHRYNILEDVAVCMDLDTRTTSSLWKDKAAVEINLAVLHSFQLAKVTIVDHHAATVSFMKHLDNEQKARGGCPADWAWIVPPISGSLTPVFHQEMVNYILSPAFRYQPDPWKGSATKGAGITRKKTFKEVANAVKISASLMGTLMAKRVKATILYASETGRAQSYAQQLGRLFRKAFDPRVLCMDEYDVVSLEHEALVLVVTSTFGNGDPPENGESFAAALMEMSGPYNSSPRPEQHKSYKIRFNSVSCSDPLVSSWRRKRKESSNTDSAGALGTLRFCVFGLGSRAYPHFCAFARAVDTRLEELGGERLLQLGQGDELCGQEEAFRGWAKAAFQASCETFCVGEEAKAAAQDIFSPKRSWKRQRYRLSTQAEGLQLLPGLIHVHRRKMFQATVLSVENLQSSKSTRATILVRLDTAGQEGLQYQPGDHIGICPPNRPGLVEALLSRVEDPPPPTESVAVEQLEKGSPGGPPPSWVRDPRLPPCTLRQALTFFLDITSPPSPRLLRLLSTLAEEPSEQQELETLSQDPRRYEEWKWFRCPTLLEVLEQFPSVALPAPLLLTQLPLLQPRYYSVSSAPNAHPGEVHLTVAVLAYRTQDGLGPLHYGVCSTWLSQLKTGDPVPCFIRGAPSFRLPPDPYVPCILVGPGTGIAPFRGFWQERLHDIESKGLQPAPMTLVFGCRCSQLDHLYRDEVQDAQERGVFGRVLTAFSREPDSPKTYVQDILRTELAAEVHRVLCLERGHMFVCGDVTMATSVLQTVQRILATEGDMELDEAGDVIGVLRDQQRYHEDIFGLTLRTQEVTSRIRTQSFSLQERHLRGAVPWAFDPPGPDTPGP

SMILES: Nc1ccc2ccc(CCNCCc3cccc(F)c3)cc2n1 [Compound 4]
- oral bioavailability [1]: good

SMILES: Nc1ccc2ccc(CCNCCc3cccc(Cl)c3)cc2n1 [Compound 5]
- brain penetration [2]: brain penetration

SMILES: CNCc1cc(OCc2ccc3ccc(N)nc3c2)ccc1Cl [Compound 6]
- PDSP number of targets classified Moderate ([3]; 100-300 nM): 3
- PDSP number of targets classified Insignificant ([3]; <50% bound at 10 μM): 22
- PDSP number of targets classified Weak ([3]; >300 nM): 17
- PDSP number of targets classified Concerning ([3]; Ki <100 nM): 3
- Caco-2 permeability (Caco-2): poor

- solubility [4]: poor
SMILES: N#Cc1cccc(NCc2ccc3ccc(N)nc3c2)c1 [Compound 7, 3-(((2-Aminoquinolin-7-yl)methyl)amino)benzonitrile Dihydrochloride]

- Selectivity rn/be (bovine eNOS): 16
- Selectivity rn/mi (murine macrophage iNOS): 71
SMILES: CN(C)c1cccc(CNCc2ccc3ccc(N)nc3c2)c1 [Compound 12, 7-(((3-(Dimethylamino)benzyl)amino)methyl)quinolin-2-amine Trihydrochloride]

SMILES: CN(C)c1cccc(CCNCc2ccc3ccc(N)nc3c2)c1 [Compound 14, 3-(Dimethylamino)phenethyl)amino)methyl)quinolin-2-amine Trihydrochloride]
- stability of solutions (nNOS): lost their nNOS inhibitory activity
